Values of other authors, collected in US20050238693A1, “Process for the preparation and activation of susbstances and a means of producing same” (priority 2002, published 2005).

Tested on: bone loss
Conditions: 400 mg dose twice a day; women relatively soon after menopause

**Q.** For [Ca] [Calcium], which “bone loss and bone density in spine, femoral neck and radial shaft” value is on record?
**A.** The value was “avert bone loss and stabilized bone density”.
